pIC50: −log10 of the molar value.

Broadly, the pIC50 is −log10 of the IC50, conventionally taken in molar units.

The subject of this test is Endogenous Huntingtin Protein. Kind of test: Endogenous Huntingtin Protein Assay (ELISA-based Meso Scale Discovery electrochemiluminescence). The test is classed as cell-based. The conditions noted are these: MSD electrochemiluminescence, Table 1. Here is the method: Compounds of Formula (I) or Formula (II) were tested using the Meso Scale Discovery (MSD) Assay provided in International Application No. PCT/US2016/066042, filed on Dec. 11, 2016 and claiming priority to U.S. Provisional Application 62/265,652 filed on Dec. 10, 2015, the entire contents of which are incorporated herein by reference.
The Endogenous Huntingtin Protein assay used in Example 1 was developed using the ELISA-based MSD electrochemiluminescence assay platform.
Endogenous Huntingtin Protein Assay
Meso Scale Discovery (MSD) 96-well or 384-well plates were coated overnight at 4° C. with MW1 (expanded polyglutamine) or MAB2166 monoclonal antibody (for capture) at a concentration of 1 μg/mL in PBS (30 μL per well). Plates were then washed three times with 300 μL wash buffer (0.05% Tween-20 in PBS) and blocked (100 μL blocking buffer; 5% BSA in PBS) for 4-5 hours at room temperature with rotational shaking and then washed three times with wash buffer.
Samples (25 μL) were transferred to the antibody-coated MSD plate and incubated overnight at 4° C. After removal of the lysates, the plate was washed three times with wash buffer, and 25 μL of #5656S (Cell signaling; rabbit monoclonal) secondary antibody (diluted to 0.25 μg/mL in 0.05% Tween-20 in blocking buffer) was added to each well and incubated with shaking for 1 Hour at room temperature. Following incubation with the secondary antibody, the wells were rinsed with wash buffer after which 25 μL of goat anti-rabbit SULFO TAG secondary detection antibody (required aspect of the MSD system) (diluted to 0.25 μg/mL in 0.05% Tween-20 in blocking buffer) was added to each well and incubated with shaking for 1 hour at room temperature. After rinsing three times with wash buffer, 150 μL of read buffer T with surfactant (MSD) were added to each empty well, and the plate was imaged on a SI 6000 imager (MSD) according to manufacturers' instructions provided for 96- or 384-well plates.
For orientation: In an ELISA, binding on a coated surface is turned into a signal by an enzyme label.
Regarding “2-(3-{[(3S,4S)-3-fluoro-2,2,6,6-tetramethylpiperidin-4-yl]amino}-1,2,4-triazin-6-yl)-5-(1H-imidazol-1-yl)phenol [Cpd 238]”, the pIC50 was ≥ 7.00. Consider “2-{3-{[(2S)-2-aminopropyl](methyl)amino}-1,2,4-triazin-6-yl)-5-(1H-pyrazol-4-yl)phenol [Cpd 190]”, for which the pIC50 is ≥ 7.00. Then “5-(5-fluoro-1H-pyrazol-4-yl)-2-{6-[methyl(2,2,6,6-tetramethylpiperidin-4-yl)amino]-1,2,4-triazin-3-yl}phenol [Cpd 191]”, with ≥ 7.00.

“5-[1-(^2H3)methyl-1H-pyrazol-4-yl]-2-{6-[methyl(2,2,6,6-tetramethylpiperidin-4-yl)amino]-1,2,4-triazin-3-yl}phenol [Cpd 192]”: the pIC50 was 6.30 to 7.00.

As to `Cc1cnc(-c2ccc(-c3cnc(N(C)C4CC(C)(C)NC(C)(C)C4)nn3)c(O)c2)o1` [Cpd 1, 5-(5-methyl-1,3-oxazol-2-yl)-2-{3-[methyl(2,2,6,6-tetramethylpiperidin-4-yl)amino]-1,2,4-triazin-6-yl}phenol], the pIC50 is < 6.30.

In the case of `COc1cc(-c2ccc(-c3cnc(N(C)C4CC(C)(C)NC(C)(C)C4)nn3)c(O)c2)ncn1` [Cpd 2, 5-(6-methoxypyrimidin-4-yl)-2-{3-[methyl(2,2,6,6-tetramethylpiperidin-4-yl)amino]-1,2,4-triazin-6-yl}phenol], the pIC50 was ≥ 7.00.

Consider `COc1cc(-c2ccc(-c3cnc(N(C)C4CC(C)(C)NC(C)(C)C4)nn3)c(O)c2)ccn1` [Cpd 3, 5-(2-methoxypyridin-4-yl)-2-{3-[methyl(2,2,6,6-tetramethylpiperidin-4-yl)amino]-1,2,4-triazin-6-yl}phenol], for which the pIC50 was ≥ 7.00. Then `CN(c1ncc(-c2ccc(-c3c[nH]nn3)cc2O)nn1)C1CC(C)(C)NC(C)(C)C1` [Cpd 4, 2-{3-[methyl(2,2,6,6-tetramethylpiperidin-4-yl)amino]-1,2,4-triazin-6-yl}-5-(1H-1,2,3-triazol-4-yl)phenol], with ≥ 7.00.

With `CN(c1ncc(-c2ccc(-c3ccnc(O)c3)cc2O)nn1)C1CC(C)(C)NC(C)(C)C1` [Cpd 5, 4-(3-hydroxy-4-{3-[methyl(2,2,6,6-tetramethylpiperidin-4-yl)amino}-1,2,4-triazin-6-yl}phenyl)pyridin-2-ol], the pIC50 is ≥ 7.00. Turning to `Cc1n[nH]cc1-c1ccc(-c2cnc(N(C)C3CC(C)(C)NC(C)(C)C3)nn2)c(O)c1` [Cpd 6, 5-(3-methyl-1H-pyrazol-4-yl)-2-{3-[methyl(2,2,6,6-tetramethylpiperidin-4-yl)amino]-1,2,4-triazin-6-yl}phenol], the pIC50 is ≥ 7.00. The value for `CN(c1ncc(-c2ccc(-c3ncco3)cc2O)nn1)C1CC(C)(C)NC(C)(C)C1` [Cpd 7, 2-{3-[methyl(2,2,6,6-tetramethylpiperidin-4-yl)amino]-1,2,4-triazin-6-yl}-5-(1,3-oxazol-2-yl)phenol] was ≥ 7.00; that for `CN(c1ncc(-c2ccc(-c3ccncc3)cc2O)nn1)C1CC(C)(C)NC(C)(C)C1` [Cpd 8, 2-{3-[methyl(2,2,6,6-tetramethylpiperidin-4-yl)amino]-1,2,4-triazin-6-yl}-5-(pyridin-4-yl)phenol] was ≥ 7.00. Turning to `Cc1cc(-c2ccc(-c3cnc(N(C)C4CC(C)(C)NC(C)(C)C4)nn3)c(O)c2)ccn1` [Cpd 9, 5-(2-methylpyridin-4-yl)-2-{3-[methyl(2,2,6,6-tetramethylpiperidin-4-yl)amino]-1,2,4-triazin-6-yl}phenol], the pIC50 is ≥ 7.00.

For the compound `Cc1cn(-c2ccc(-c3cnc(N(C)C4CC(C)(C)NC(C)(C)C4)nn3)c(O)c2)cn1` [Cpd 10, 5-(4-methyl-1H-imidazol-1-yl)-2-{3-[methyl(2,2,6,6-tetramethylpiperidin-4-yl)amino]-1,2,4-triazin-6-yl}phenol], the pIC50 is ≥ 7.00. Take `CC1(C)CC(Oc2ncc(-c3ccc(-c4cn[nH]c4)cc3O)nn2)CC(C)(C)N1` [Cpd 11, 5-(1H-pyrazol-4-yl)-2-{3-[(2,2,6,6-tetramethylpiperidin-4-yl)oxy]-1,2,4-triazin-6-yl}phenol]: the pIC50 was ≥ 7.00. The value for `CN(c1ncc(-c2ccc(-c3c[nH]nc3F)cc2O)nn1)C1CC(C)(C)NC(C)(C)C1` [Cpd 12, 5-(3-fluoro-1H-pyrazol-4-yl)-2-{3-[methyl(2,2,6,6-tetramethylpiperidin-4-yl)amino]-1,2,4-triazin-6-yl}phenol] was ≥ 7.00. With `CC1(C)CC(Nc2ncc(-c3ccc(-c4cn[nH]c4)cc3O)nn2)CC(C)(C)N1` [Cpd 13, 5-(1H-pyrazol-4-yl)-2-{3-[(2,2,6,6-tetramethylpiperidin-4-yl)amino]-1,2,4-triazin-6-yl}phenol], the pIC50 is ≥ 7.00. The value for `[2H]C([2H])([2H])n1cc(-c2ccc(-c3cnc(N(C)C4CC(C)(C)NC(C)(C)C4)nn3)c(O)c2)cn1` [Cpd 14, 5-[1-(^2H3)methyl-1H-pyrazol-4-yl]-2-{3-[methyl(2,2,6,6-tetramethylpiperidin-4-yl)amino]-1,2,4-triazin-6-yl}phenol] was ≥ 7.00; that for `CN(c1ncc(-c2ccc(-c3cn[nH]c3)cc2O)nn1)C1CC(C)(C)NC(C)(C)C1` [Cpd 15, 2-{3-[methyl(2,2,6,6-tetramethylpiperidin-4-yl)amino]-1,2,4-triazin-6-yl}-5-(1H-pyrazol-4-yl)phenol] was ≥ 7.00. Then `CN(c1ncc(-c2ccc(-c3cnn(C)c3)cc2O)nn1)C1CC(C)(C)NC(C)(C)C1` [Cpd 16], with ≥ 7.00; and `CN(c1ncc(-c2ccc(-n3cccn3)cc2O)nn1)C1CC(C)(C)NC(C)(C)C1` [Cpd 17, 2-{3-[methyl(2,2,6,6-tetramethylpiperidin-4-yl)amino]-1,2,4-triazin-6-yl}-5-(1H-pyrazol-1-yl)phenol], with 6.30 to 7.00; and `CN(c1ncc(-c2ccc(-c3cn(C)nc3F)cc2O)nn1)C1CC(C)(C)NC(C)(C)C1` [Cpd 18, 5-(3-fluoro-1-methyl-1H-pyrazol-4-yl)-2-{3-[methyl(2,2,6,6-tetramethylpiperidin-4-yl)amino]-1,2,4-triazin-6-yl}phenol], with ≥ 7.00.

Consider `CN(c1ncc(-c2ccc(-c3cn[nH]c3)cc2O)nn1)C1CCNCC1` [Cpd 19, 2-{3-[methyl(piperidin-4-yl)amino]-1,2,4-triazin-6-yl}-5-(1H-pyrazol-4-yl)phenol], for which the pIC50 was ≥ 7.00. The value for `CN(c1ncc(-c2ccc(-c3cn[nH]c3)cc2O)nn1)C1CCCNC1` (centres unmarked) [Cpd 20, 2-{3-[methyl(piperidin-3-yl)amino]-1,2,4-triazin-6-yl}-5-(1H-pyrazol-4-yl)phenol] was < 6.30. Turning to `CN(c1ncc(-c2ccc(-c3cn[nH]c3)cc2O)nn1)C1C[C@H]2CC[C@@H](C1)N2` (stereo partly drawn) [Cpd 21, 2-(3-{[(1R,3S,5S)-8-azabicyclo[3.2.1]octan-3-yl](methyl)amino}-1,2,4-triazin-6-yl)-5-(1H-pyrazol-4-yl)phenol], the pIC50 was ≥ 7.00.

Turning to `CN(c1ncc(-c2ccc(-c3cn[nH]c3)cc2O)nn1)C1C[C@H]2CCC[C@@H](C1)N2` (stereo partly drawn) [Cpd 22, 2-(3-{[(1R,3S,5S)-9-azabicyclo[3.3.1]nonan-3-yl](methyl)amino}-1,2,4-triazin-6-yl)-5-(1H-pyrazol-4-yl)phenol], the pIC50 was ≥ 7.00. Then `CN(c1ncc(-c2ccc(-c3cnn(C)n3)cc2O)nn1)C1CC(C)(C)NC(C)(C)C1` [Cpd 23, 2-{3-[methyl(2,2,6,6-tetramethylpiperidin-4-yl)amino]-1,2,4-triazin-6-yl}-5-(2-methyl-2H-1,2,3-triazol-4-yl)phenol], with ≥ 7.00; and `CN(c1cnc(-c2ccc(-c3cn[nH]c3)cc2O)nn1)C1CC(C)(C)NC(C)(C)C1` [Cpd 24, 2-{6-[methyl(2,2,6,6-tetramethylpiperidin-4-yl)amino]-1,2,4-triazin-3-yl}-5-(1H-pyrazol-4-yl)phenol], with 6.30 to 7.00; and `CN(c1ncc(-c2ccc(-c3ncnc(O)n3)cc2O)nn1)C1CC(C)(C)NC(C)(C)C1` [Cpd 33, 4-(3-hydroxy-4-{3-[methyl(2,2,6,6-tetramethylpiperidin-4-yl)amino]-1,2,4-triazin-6-yl}phenyl)-1,3,5-triazin-2-ol], with 5.52 to 6.00. The value for `CN(c1ncc(-c2ccc(-n3cnc(F)c3)cc2O)nn1)C1CC(C)(C)NC(C)(C)C1` [Cpd 50, 5-(4-fluoro-1H-imidazol-1-yl)-2-{3-[methyl(2,2,6,6-tetramethylpiperidin-4-yl)amino]-1,2,4-triazin-6-yl}phenol] was ≥ 7.00; that for `Cc1ncn(-c2ccc(-c3cnc(N(C)C4CC(C)(C)NC(C)(C)C4)nn3)c(O)c2)n1` [Cpd 51, 2-{3-[methyl(2,2,6,6-tetramethylpiperidin-4-yl)amino]-1,2,4-triazin-6-yl}-5-(3-methyl-1H-1,2,4-triazol-1-yl)phenol] was < 6.30. For `CN1CCC(Nc2ncc(-c3ccc(-c4cn[nH]c4)cc3O)nn2)CC1` [Cpd 52, 2-{3-[(1-methylpiperidin-4-yl)amino]-1,2,4-triazin-6-yl}-5-(1H-pyrazol-4-yl)phenol], the pIC50 was 6.30 to 7.00.

These data come from patent US11780839B2, “Compounds for treating Huntington's disease” (PTC THERAPEUTICS, INC., priority 2018, dated 2023).
